For data set [1], the target named is human Factor Xa (Homo sapiens (Human), UniProt P00742). The data set is described as follows: Assay C: human Factor Xa chromogenic substrate assay. Format: biochemical. The conditions noted are these: for IC50: human Factor Xa 0.86 nM, chromogenic substrate S2765; for Selectivity Assay C/Assay A: ratio IC50 Factor Xa / IC50 IDO1. How it is done: Assay C. In Vitro Testing of Human Factor Xa Potency:
Measurement of active human Factor Xa using a specific chromogenic substrate which is labeled with a p-nitro-anilino group (pNA). The cleavage in between the binding of the peptide substrate and the pNA-group is followed by a color change, which can be detected at 405 nm. The amount of cleaved substrate is directly proportional to the amount of active Xa.
[…] (100 U) human Factor Xa (Enzyme Research Laboratories; HFXa1011) were solved in 0.444 ml H2O (Millipore), which accords to a stock solution of 19.28 μM or 225 U/ml. Further dilutions were made in the assay buffer (Tris 100 mM, NaCL 150 mM, adjusted to a pH of 7.8 with HCL, containing 0.1% BSA and 0.05% Tween20). 25 mg (1 vial) of the chromogenic substrate S2765 (Chromogenix; S2765) was solved in 3.5 ml H2O (Millipore) to achieve a stock solution of 10 mM.
Compounds were solved and diluted in DMSO where the final dilution in the assay is 1:10 resulting in a final concentration of 1% DMSO.
• the prefinal dilution step was 1:10 in the assay buffer containing 11% DMSO resulting in 10% DMSO • final dilution in the assay is 1:10 resulting in a final concentration of 1% DMSO
Compounds were tested at final concentrations of 10 μM to 0.003 nM or lower. 5 μl human factor Xa (final concentration 0.86 nM), 2 μl compound dilution or assay buffer (containing 10% DMSO) and 8 μl assay buffer were pipetted in triplicates into a 384-well plate and incubated in the Thermomix at 24° C. for 10 minutes.
After addition of 5 μl chromogenic substrate (final concentration 0.5 mM) the enzyme-substrate reaction started and the kinetic measurement with the SpectraMax Monochromator was started within 1-2 minutes. • Parameter of measurement: (Spectra ax, Monochromator) • Absorbance; 1.LM 405 nM • Kinetic: 16 min each 2nd minute (9 times) • Negative Control (NC) 5 μl human factor Xa+10 μl assay buffer+5 μl Substrate • Positive Control (PC): 5 μl human factor Xa+2 μl Nafamostat (commercially available, final concentration: 1 μM)+8 μl assay buffer+5 μl Substrate • Blank (optional): 15 μl assay buffer+5 μl Substrate
Calculation of IC50, KI and the % effect at the highest concentration (Ratio)
For the calculation the average of the Vmax-values in between 120 sec to 720 sec were taken.
A x/y-Plot was created: x=log (M, Compound); y=vmax (drfu/min)
The data were analyzed with the curve fitting model: log (inhibitor) vs. response—Variable slope (four parameters)
The results of this fit were Top, Bottom, Log (IC50, M), Hillslope and IC50 (M)

Data set [2] concerns the target MDR1 (P-gp) (Homo sapiens (Human), UniProt P08183). The data set is described as follows: Assay E: MDCK assay MDR-1 (P-gp). It counts as in vitro ADME. The conditions noted are these: for efflux ratio at 2 h, 10 μM: human, MDCK-MDR1, pH 7.4, Table 7, final test concentration 10 μM, read-out: MDCK-MDR1 efflux ratio (Assay E). How it is done: The MDCK assays provide information on the potential of a compound to pass the blood brain barrier. Permeability measurements across polarized, confluent MDCK-MDR1 cell monolayers grown on permeable filter supports are used as an in vitro absorption model: apparent permeability coefficients (PE) of the compounds across the MDCK-MDR1 cell monolayers are measured (pH 7.4, 37° C.) in apical-to-basal (AB) and basal-to-apical (BA) transport direction. The AB permeability (PEAB) represents drug absorption from the blood into the brain and the BA permeability (PEBA) drug efflux from the brain back into the blood via both, passive permeability as well as active transport mechanisms mediated by efflux and uptake transporters that are expressed on the MDCK-MDR1 cells, predominantly by the overexpressed human MDR1. Identical or similar permeabilities in both transport directions indicate passive permeation, vectorial permeability points to additional active transport mechanisms. Higher PEBA than PEAB (PEBA/PEAB >3) indicates the involvement of active efflux mediated by MDR1, which might compromise the goal to achieve sufficient brain exposure.
Assay E. MDCK assay MDR-1 (P-gp)
Apparent permeability coefficients (Papp) of the compounds across MDCK-MDR1 monolayers (MDCKII cells transfected with human MDR1 gene) are measured in apical-to-basal (AB) and basal-to-apical (BA) direction.
MDCK-MDR1 cells (6×10^5 cells/cm^2) are seeded onto filter inserts (Corning, Transwell, polycarbonate, 0.4 μm pore size) and cultured for 9 to 10 days. Compounds dissolved in DMSO stock solution (1-20 mM) are diluted with HTP-4 buffer (128.13 mM NaCl, 5.36 mM KCl, 1 mM MgSO4, 1.8 mM CaCl2, 4.17 mM NaHCO3, 1.19 mM Na2HPO4, 0.41 mM NaH2PO4, 15 mM HEPES, 20 mM glucose, pH 7.4) supplemented with 0.25% BSA to prepare the transport solutions, resulting in a final test concentration of 1 μM or 10 μM and a final DMSO content of 0.5%. The transport solution is applied to the apical or basolateral donor side for measuring A-B or B-A permeability, respectively. The receiver side contains HTP-4 buffer supplemented with 0.25% BSA. Samples are collected at the start and end of experiment from the donor and at various time intervals for up to 2 hours from the receiver side for concentration measurement by HPLC-MS/MS. Sampled receiver volumes are replaced with fresh receiver solution.
All data reported for Assay E were measured with a final test concentration of 10 μM.

For data set [3], the target named is human androgen receptor (Homo sapiens (Human), UniProt P10275). The data set is described as follows: Assay B: human androgen receptor luciferase reporter assay (Indigo Biosciences). Format: cell-based. The conditions noted are these: for Selectivity Assay B/Assay A: ratio IC50 androgen receptor / IC50 IDO1. The text has this:
Assay B. In Vitro Testing of Androgen Receptor Potency:
The human androgen receptor (AR) assay was run using Product #IB03001 from Indigo Biosciences. The cell line provided in this kit carries a reporter gene, induced upon AR stimulation. This reporter gene is cDNA encoding for beetle luciferase, a 62 kD protein originating from the North American firefly (Photinus pyralis). This luciferase catalyzes the mono-oxidation of D-luciferin yielding oxyluciferin, adenosine monophosphate, pyrophosphate, CO2, and photon emission. The luminescence intensity of the reaction is quantified using a luminometer.
To run the assay, the cells are thawed by adding pre-warmed cell recovery medium to each tube, then placed in a 37° C. water bath. 30000 viable cells in 200 μl are plated (collagen coated plates) and incubated at 37° C., ≥85% humidity, 5% CO2 for 24 hours. Media is replaced with compound screening medium. Cells are then challenged with 125 pM (EC80) 6a-Fl Testosterone and compounds are applied in half logarithmic dilutions from 10 μM to 10 nM. Assay plates are then incubated at 37° C., ≥85% humidity, 5% CO2 for 22-24 hours. Media is replaced with luciferase detection reagent and allowed 5 minutes to equilibrate prior to luminescence quantification.
Data Analysis consisted of calculating percentage of control between 100% (Negative control:6a-Fl Testosterone) and 0 (positive control: no 6a-FL Testosterone). Fitting of normalized values was made 4-Parameter sigmoidal binding curve (Log[conc]) vs. signal.

Chain of human androgen receptor (P10275 whole entry): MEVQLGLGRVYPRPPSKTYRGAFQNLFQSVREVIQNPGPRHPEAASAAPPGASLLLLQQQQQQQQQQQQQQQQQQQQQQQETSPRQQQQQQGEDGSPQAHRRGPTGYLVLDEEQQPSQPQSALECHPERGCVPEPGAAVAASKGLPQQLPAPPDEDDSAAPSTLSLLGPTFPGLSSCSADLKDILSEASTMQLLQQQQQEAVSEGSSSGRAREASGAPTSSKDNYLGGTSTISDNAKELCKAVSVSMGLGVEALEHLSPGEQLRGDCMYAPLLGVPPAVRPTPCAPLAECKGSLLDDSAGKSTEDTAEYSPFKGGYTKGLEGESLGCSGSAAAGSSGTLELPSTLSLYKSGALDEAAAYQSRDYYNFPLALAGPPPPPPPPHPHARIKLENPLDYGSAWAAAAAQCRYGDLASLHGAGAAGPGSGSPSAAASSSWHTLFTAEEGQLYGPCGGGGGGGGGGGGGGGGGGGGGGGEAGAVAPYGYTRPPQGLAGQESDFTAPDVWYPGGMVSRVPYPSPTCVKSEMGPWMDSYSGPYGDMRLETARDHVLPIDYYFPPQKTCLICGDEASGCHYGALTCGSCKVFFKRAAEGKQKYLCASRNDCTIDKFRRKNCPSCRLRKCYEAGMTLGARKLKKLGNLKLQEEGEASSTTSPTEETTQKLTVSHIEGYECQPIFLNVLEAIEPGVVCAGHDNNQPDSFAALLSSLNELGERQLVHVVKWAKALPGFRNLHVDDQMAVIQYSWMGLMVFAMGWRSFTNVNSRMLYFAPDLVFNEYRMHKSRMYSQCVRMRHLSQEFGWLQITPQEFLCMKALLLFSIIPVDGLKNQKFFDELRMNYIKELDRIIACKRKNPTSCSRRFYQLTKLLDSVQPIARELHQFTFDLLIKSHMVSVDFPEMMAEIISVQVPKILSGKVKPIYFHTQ
Chain of human Factor Xa (P00742 235-488): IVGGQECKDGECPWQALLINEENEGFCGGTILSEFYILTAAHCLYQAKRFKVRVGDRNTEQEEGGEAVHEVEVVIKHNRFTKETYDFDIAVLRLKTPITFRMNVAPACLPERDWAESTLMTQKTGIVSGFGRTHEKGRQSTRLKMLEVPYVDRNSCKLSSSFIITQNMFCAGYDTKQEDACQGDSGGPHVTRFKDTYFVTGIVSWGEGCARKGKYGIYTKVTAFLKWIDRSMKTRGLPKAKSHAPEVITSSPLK
Chain of human Factor Xa (P00742 41-179 partner): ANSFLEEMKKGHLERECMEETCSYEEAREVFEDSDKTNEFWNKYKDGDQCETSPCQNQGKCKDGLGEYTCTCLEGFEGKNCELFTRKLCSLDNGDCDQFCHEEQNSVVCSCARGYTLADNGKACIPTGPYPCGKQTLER
Chain of MDR1 (P-gp) (P08183 whole entry): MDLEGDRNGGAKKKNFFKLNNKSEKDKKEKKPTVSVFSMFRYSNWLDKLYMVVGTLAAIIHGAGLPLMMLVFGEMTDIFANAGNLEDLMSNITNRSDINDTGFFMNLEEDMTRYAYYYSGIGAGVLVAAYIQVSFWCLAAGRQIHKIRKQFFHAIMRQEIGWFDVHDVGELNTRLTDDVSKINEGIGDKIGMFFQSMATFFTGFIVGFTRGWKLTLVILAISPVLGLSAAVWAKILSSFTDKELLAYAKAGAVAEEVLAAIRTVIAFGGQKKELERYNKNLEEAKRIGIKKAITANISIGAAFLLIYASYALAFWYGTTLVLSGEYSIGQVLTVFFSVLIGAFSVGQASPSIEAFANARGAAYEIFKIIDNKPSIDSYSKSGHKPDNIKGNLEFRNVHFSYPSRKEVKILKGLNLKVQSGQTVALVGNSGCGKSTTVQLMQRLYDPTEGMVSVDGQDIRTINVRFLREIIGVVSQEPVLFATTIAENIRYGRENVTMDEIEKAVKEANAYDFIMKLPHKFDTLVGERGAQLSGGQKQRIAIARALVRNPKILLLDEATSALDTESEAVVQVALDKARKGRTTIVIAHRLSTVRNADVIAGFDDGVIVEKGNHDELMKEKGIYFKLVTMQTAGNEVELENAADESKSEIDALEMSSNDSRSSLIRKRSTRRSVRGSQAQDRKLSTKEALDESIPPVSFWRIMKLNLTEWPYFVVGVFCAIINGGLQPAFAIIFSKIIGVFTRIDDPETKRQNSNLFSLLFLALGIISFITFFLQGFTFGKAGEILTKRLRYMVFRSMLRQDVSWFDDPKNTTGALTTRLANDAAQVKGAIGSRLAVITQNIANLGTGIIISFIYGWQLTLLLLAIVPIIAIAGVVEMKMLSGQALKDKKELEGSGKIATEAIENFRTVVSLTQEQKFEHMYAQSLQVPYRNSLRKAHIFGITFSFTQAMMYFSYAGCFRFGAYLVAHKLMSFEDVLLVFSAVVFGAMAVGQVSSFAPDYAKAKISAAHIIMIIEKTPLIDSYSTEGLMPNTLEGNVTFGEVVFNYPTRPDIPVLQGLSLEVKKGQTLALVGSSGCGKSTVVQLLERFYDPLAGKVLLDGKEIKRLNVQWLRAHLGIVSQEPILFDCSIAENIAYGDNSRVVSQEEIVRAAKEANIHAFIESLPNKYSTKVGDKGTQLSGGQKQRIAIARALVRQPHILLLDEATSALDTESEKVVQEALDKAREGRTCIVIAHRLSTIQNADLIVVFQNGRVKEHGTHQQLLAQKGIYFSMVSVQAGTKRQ

As for `CC(C)(NC(=O)c1ccc(Cl)s1)C(=O)Nc1ccc(Br)cc1` [Example 4, 2-[(5-chlorothiophen-2-yl)formamido]-N-(4-bromophenyl)-2-methylpropanamide], in data set [1], the IC50 (as a rule, the midpoint of a concentration-inhibition curve) was over 10 µM and the “Selectivity Assay C/Assay A” value was over 42. In addition, in data set [2], the “in vitro efflux, MDCK-MDR1 (in words)” value is on record as “neither in vitro nor in vivo efflux” and the efflux ratio at 2 h, 10 μM was 0.5. The IC50 in data set [3] (challenge with 125 pM (EC80) 6a-Fl Testosterone, mean +− standard deviation) is over 10 µM. For the same compound, in data set [3], the “Selectivity Assay B/Assay A” value was over 42.

As for `CC(C)(NC(=O)c1ccc(Cl)s1)C(=O)Nc1ccc(Cl)c(F)c1` [Example 3, 2-[(5-chlorothiophen-2-yl)formamido]-N-(4-chloro-3-fluorophenyl)-2-methylpropanamide], in data set [1], the IC50 was over 10 µM and the “Selectivity Assay C/Assay A” value is reported as over 55. For the same compound, in data set [2], the “in vitro efflux, MDCK-MDR1 (in words)” value was “neither in vitro nor in vivo efflux” and the efflux ratio at 2 h, 10 μM was 0.5. Besides, in data set [3], the “Selectivity Assay B/Assay A” value was 33.

Source of the values: patent US11691960B2, “2-[thiophen-2-yl)formamido]-N-(phenyl)-2-methylpropanamide derivatives and the use thereof as medicament” (Boehringer Ingelheim International GmbH, priority 2020, dated 2023).
